Legend:
[1] = tested on: A549-ACE2 infected with SARS-CoV-2; assay: morphology score (similarity to uninfected cells); higher = more like uninfected cells; details: 24 h
A549-ACE2 [2] = assay: phospholipidosis EC50; higher = less potent phospholipidosis inducer
Vero E6 [3] = assay: cell viability relative to DMSO; higher = less toxic; details: 72 h
Caco-2 [4] = assay: as above; details: 72 h
Calu-3 [5] = assay: as above; details: 72 h
HepG2 [6] = assay: as above; details: 72 h
U2OS [7] = assay: as above; details: 72 h
[8] = tested on: A549-ACE2 infected with SARS-CoV-2; assay: cell count relative to DMSO; higher = less toxic; details: 24 h
A549-ACE2 [9] = assay: drug-induced phospholipidosis relative to tamoxifen; higher = more phospholipidosis
U2OS [10] = assay: relative viability EC50 (midpoint between 100% and the lowest measured viability); higher = less toxic; details: 72 h
[11] = tested on: A549-ACE2 infected with SARS-CoV-2; assay: SARS-CoV-2 infection rate relative to DMSO; higher = more infection; details: 24 h
Vero E6 [12] = assay: drug sensitivity score (DSS) for viability; higher = more toxic; extreme values may be limits of the assay; details: 72 h
Caco-2 [13] = assay: as above; details: 72 h
Calu-3 [14] = assay: as above; details: 72 h
HepG2 [15] = assay: as above; details: 72 h
U2OS [16] = assay: as above; details: 72 h
Vero E6 [17] = assay: relative viability EC50 (midpoint between 100% and the lowest measured viability); higher = less toxic; details: 72 h
Caco-2 [18] = assay: as above; details: 72 h
Calu-3 [19] = assay: as above; details: 72 h
HepG2 [20] = assay: as above; details: 72 h

O=C(c1ccc(-c2ccc(Cl)cc2)o1)N(Cc1ccccn1)c1ccc(N2CCNCC2)cc1 [MK2-IN-1]
Details | SARS-CoV-2 infection rate [%] | cell count [%] | cell viability [%] | morphology score | phospholipidosis EC50 [µM]
A549-ACE2 [2], 24 h | – | – | – | – | 3.59
A549-ACE2 [2], 48 h | – | – | – | – | 4.69
A549-ACE2 [2], 72 h | – | – | – | – | 4.85
Caco-2 [4], 1 nM | – | – | 104 | – | –
Caco-2 [4], 10 nM | – | – | 111 | – | –
Caco-2 [4], 100 nM | – | – | 100 | – | –
Caco-2 [4], 1000 nM | – | – | 131 | – | –
Caco-2 [4], 10000 nM | – | – | 52.9 | – | –
Calu-3 [5], 1 nM | – | – | 92.2 | – | –
Calu-3 [5], 10 nM | – | – | 112 | – | –
Calu-3 [5], 100 nM | – | – | 93.9 | – | –
Calu-3 [5], 1000 nM | – | – | 116 | – | –
Calu-3 [5], 10000 nM | – | – | 54.9 | – | –
HepG2 [6], 1 nM | – | – | 102 | – | –
HepG2 [6], 10 nM | – | – | 109 | – | –
HepG2 [6], 100 nM | – | – | 115 | – | –
HepG2 [6], 1000 nM | – | – | 97.9 | – | –
HepG2 [6], 10000 nM | – | – | 68.2 | – | –
U2OS [7], 1 nM | – | – | 97.9 | – | –
U2OS [7], 10 nM | – | – | 103 | – | –
U2OS [7], 100 nM | – | – | 95.9 | – | –
U2OS [7], 1000 nM | – | – | 104 | – | –
U2OS [7], 10000 nM | – | – | 83.2 | – | –
Vero E6 [3], 1 nM | – | – | 96.5 | – | –
Vero E6 [3], 10 nM | – | – | 94 | – | –
Vero E6 [3], 100 nM | – | – | 98.1 | – | –
Vero E6 [3], 1000 nM | – | – | 95.7 | – | –
Vero E6 [3], 10000 nM | – | – | 67.6 | – | –
[1], 0.1 µM | – | – | – | 0.14 | –
[1], 0.3 µM | – | – | – | 0.26 | –
[1], 1 µM | – | – | – | 0.34 | –
[1], 3 µM | – | – | – | 0.75 | –
[8], 0.1 µM | – | 100 | – | – | –
[8], 0.3 µM | – | 102 | – | – | –
[8], 1 µM | – | 107 | – | – | –
[8], 3 µM | – | 117 | – | – | –
[11], 0.1 µM | 97 | – | – | – | –
[11], 0.3 µM | 88 | – | – | – | –
[11], 1 µM | 77 | – | – | – | –
[11], 3 µM | 29 | – | – | – | –

drug-induced phospholipidosis [%], A549-ACE2 [9]
Details | 0.3 µM | 0.833333 µM | 3.33333 µM | 6.66667 µM | 10 µM | 30 µM
24 h | 3.45 | 9.1 | 31.8 | 109 | 102 | 96.8
48 h | 6.99 | 4.08 | 23 | 127 | 127 | 153
72 h | 5.37 | -1.19 | 20.6 | 118 | 139 | –

Details | drug sensitivity score | relative viability EC50 [µM]
Caco-2 [13] | 1.5 | –
Calu-3 [14] | 1.7 | –
HepG2 [15] | 1.7 | –
U2OS [10] | – | > 10
U2OS [16] | 0.2 | –
Vero E6 [12] | 2.2 | –

CC1(C)CC[C@]2(NC(=O)C(C)(F)F)CC[C@]3(C)[C@H](C(=O)C=C4[C@@]5(C)C=C(C#N)C(=O)C(C)(C)[C@@H]5CC[C@]43C)[C@@H]2C1 [Omaveloxolone (RTA-408)]
Details | SARS-CoV-2 infection rate, [11] [%] | cell count, [8] [%] | cell viability, Caco-2 [4] [%] | cell viability, Calu-3 [5] [%] | cell viability, HepG2 [6] [%] | cell viability, U2OS [7] [%] | cell viability, Vero E6 [3] [%] | morphology score, [1]
1 nM | – | – | 100 | 99.6 | 97.6 | 96.8 | 107 | –
10 nM | – | – | 102 | 118 | 91.6 | 102 | 108 | –
100 nM | – | – | 85.7 | 90.7 | 83.6 | 98.7 | 103 | –
0.3 µM | 111 | 97 | – | – | – | – | – | -0.26
1000 nM | – | – | 32.3 | 23.6 | 1.2 | 1.9 | 7.7 | –
3 µM | 0 | 1 | – | – | – | – | – | 0.09
10000 nM | – | – | 5.4 | 1.6 | -0.3 | -0.1 | -0.1 | –

A549-ACE2 [9], 0.3 µM
Details | drug-induced phospholipidosis [%]
24 h | 9.83
48 h | 10.5
72 h | 21.8

Details | drug sensitivity score | relative viability EC50 [µM]
Caco-2 [13] | 14.5 | –
Caco-2 [18] | – | 0.45
Calu-3 [14] | 15.4 | –
Calu-3 [19] | – | 0.453
HepG2 [15] | 20.7 | –
HepG2 [20] | – | 0.192
U2OS [10] | – | 0.321
U2OS [16] | 17.9 | –
Vero E6 [12] | 16.6 | –
Vero E6 [17] | – | 0.41

CCCCCCCCCCC(O)C1C=CC2C(=O)N(c3ccccc3)C(=O)C2N1Nc1ccc([N+](=O)[O-])cc1 (stereo not drawn) [A12B4C3]
Details | SARS-CoV-2 infection rate, [11] [%] | cell count, [8] [%] | cell viability, Caco-2 [4] [%] | cell viability, Calu-3 [5] [%] | cell viability, HepG2 [6] [%] | cell viability, U2OS [7] [%] | cell viability, Vero E6 [3] [%] | morphology score, [1]
1 nM | – | – | 96.6 | 98.9 | 96.9 | 97.8 | 93.1 | –
10 nM | – | – | 99 | 104 | 91.2 | 104 | 99.9 | –
100 nM | – | – | 85.9 | 98.4 | 99.2 | 95.5 | 98.3 | –
0.3 µM | 92 | 107 | – | – | – | – | – | 0.31
1000 nM | – | – | 90 | 96.2 | 102 | 99 | 106 | –
3 µM | 95 | 105 | – | – | – | – | – | 0.4
10 µM | 68 | 110 | – | – | – | – | – | 0.65
10000 nM | – | – | 92 | 95.6 | 97.7 | 89 | 102 | –
30 µM | 37 | 104 | – | – | – | – | – | 0.6

drug-induced phospholipidosis [%], A549-ACE2 [9]
Details | 0.3 µM | 0.833333 µM | 3.33333 µM | 6.66667 µM | 10 µM | 30 µM
24 h | -2.18 | -1.14 | -1.42 | -1.07 | -2.23 | 12.3
48 h | 0.96 | -1.02 | 1.8 | 1.83 | 2.36 | 7.09
72 h | 1.78 | 0.183 | 1.98 | 2.85 | 2.51 | 10.2

Details | drug sensitivity score | relative viability EC50 [µM]
Caco-2 [13] | 0.2 | –
Caco-2 [18] | – | > 10
Calu-3 [14] | 0 | –
Calu-3 [19] | – | > 10
HepG2 [15] | 0 | –
HepG2 [20] | – | > 10
U2OS [10] | – | > 10
U2OS [16] | 0 | –
Vero E6 [12] | 0 | –
Vero E6 [17] | – | > 10

O=C1/C(=C/c2ccccc2)C[C@@]2(O)[C@H]3Cc4ccc(O)c5c4[C@@]2(CCN3CC2CC2)[C@H]1O5 [BNTX]
Details | SARS-CoV-2 infection rate, [11] [%] | cell count, [8] [%] | cell viability, Caco-2 [4] [%] | cell viability, Calu-3 [5] [%] | cell viability, HepG2 [6] [%] | cell viability, U2OS [7] [%] | cell viability, Vero E6 [3] [%] | morphology score, [1]
1 nM | – | – | 100 | 99.5 | 98.3 | 99.5 | 105 | –
10 nM | – | – | 101 | 95.6 | 99.3 | 102 | 102 | –
0.1 µM | 94 | 101 | – | – | – | – | – | 0.09
100 nM | – | – | 91.2 | 102 | 110 | 95.4 | 103 | –
0.3 µM | 93 | 106 | – | – | – | – | – | 0.34
1 µM | 59 | 108 | – | – | – | – | – | 0.64
1000 nM | – | – | 93.8 | 109 | 84.2 | 97.5 | 96.2 | –
3 µM | 11 | 89 | – | – | – | – | – | 0.68
10000 nM | – | – | 30 | 13.1 | 0.5 | 5.7 | 0.4 | –

drug-induced phospholipidosis [%], A549-ACE2 [9]
Details | 0.3 µM | 0.833333 µM | 3.33333 µM | 6.66667 µM
24 h | 0.73 | 2.81 | 24.9 | 20.5
48 h | 0.39 | 0.51 | 26 | –
72 h | 2.04 | 0.605 | – | –

Details | drug sensitivity score | relative viability EC50 [µM]
Caco-2 [13] | 4.9 | –
Caco-2 [18] | – | 2.43
Calu-3 [14] | 4.2 | –
Calu-3 [19] | – | 3.66
HepG2 [15] | 8.1 | –
HepG2 [20] | – | 1.94
U2OS [10] | – | 2.97
U2OS [16] | 5.6 | –
Vero E6 [12] | 6.1 | –
Vero E6 [17] | – | 2.88

CC(C)C[C@H](NC(=O)CNC(=O)c1cc(Cl)ccc1Cl)B(O)O [ixazomib]
Details | SARS-CoV-2 infection rate, [11] [%] | cell count, [8] [%] | cell viability, Caco-2 [4] [%] | cell viability, Calu-3 [5] [%] | cell viability, HepG2 [6] [%] | cell viability, U2OS [7] [%] | cell viability, Vero E6 [3] [%] | morphology score, [1]
1 nM | – | – | 86.9 | 90 | 107 | 95.9 | 97.4 | –
10 nM | – | – | 102 | 99 | 105 | 93.4 | 99.3 | –
0.1 µM | 99 | 90 | – | – | – | – | – | 0.03
100 nM | – | – | 24.4 | 35.8 | 99.5 | 84.5 | 78.5 | –
0.3 µM | 98 | 80 | – | – | – | – | – | 0.25
1 µM | 64 | 72 | – | – | – | – | – | 0.26
1000 nM | – | – | 4.7 | 5.8 | 7.7 | 1.3 | 11.5 | –
3 µM | 46 | 59 | – | – | – | – | – | 0.26
10000 nM | – | – | 7.3 | 5.7 | 0.6 | -0.1 | 3.7 | –

A549-ACE2 [9], 0.3 µM
Details | drug-induced phospholipidosis [%]
24 h | -5.63
48 h | -3.87
72 h | -1.4

Details | drug sensitivity score | relative viability EC50 [µM]
Caco-2 [13] | 25.9 | –
Caco-2 [18] | – | 0.0588
Calu-3 [14] | 24.6 | –
Calu-3 [19] | – | 0.0714
HepG2 [15] | 16.8 | –
HepG2 [20] | – | 0.383
U2OS [10] | – | 0.197
U2OS [16] | 20.5 | –
Vero E6 [12] | 18.9 | –
Vero E6 [17] | – | 0.218
